Assay results from patent US20260258025A1, “INHIBITORS OF TDP-43 AND TAU AGGREGATION” (Aquinnah Pharmaceuticals, inc., priority 2023, published 2026).
Where a SMILES comes first, the peptide text is derived from it. The star is where a group is joined. Cbz = O=C(OCc1ccccc1)*

What was measured:
Assay type in all cases: cell-based
[1] = system: TDP-43 nuclear localization; assay: TDP-43 localization analysis by immunofluorescence in MG-132 challenged iP11NA human motor neurons; settings: 1 μM MG-132 for 20 hours, human motor neurons, vs unstressed
Experimental: (§1) Cell culture and differentiation of iPS Cells into motor neurons. Pluripotent stem cells were grown with mTeSR Plus medium on tissue culture dishes coated with Matrigel, and maintained in 5% CO2 incubators at 37° C. Stem cells were passaged as small aggregates of cells after 1 mM EDTA treatment. […] was added to the cultures for 16-24 h after dissociation to prevent cell death. The iP11NA iPS cell line was acquired from ALSTEM. This cell line was generated from pre-made footprint-free human iPS cells with DOX inducible Ngn2 that has been stably integrated into the human AAVS1 “Safe Harbor” site, and provides a convenient means to differentiate human iPS cells into neurons rapidly and efficiently. Motor neuron differentiation was achieved using a modified 5-day strategy.
This approach relies on neural induction through small molecule inhibition of SMAD signaling, accelerated neural differentiation through forced Ngn2 expression, and motor neuron patterning through the activation of retinoic acid and Sonic Hedgehog signaling pathways. In brief, pluripotent stem cells were dissociated to single cells using accutase and plated at a density of 80,000 cells per cm^2 on Matrigel-coated culture plates with mTeSR Plus medium supplemented with ROCK inhibitor (10 μM Y-27632, ATCC). When cells reached 50% confluency, medium was changed to differentiation medium BrainPhys medium supplemented with N2-A, SM1, […]. This time point was defined as day 0 (d0) of motor neuron differentiation. Treatment with small molecules was carried out as follows: 2 μg/mL Doxycyline, 10 μM SB431542, 100 nM LDN-193189, […] and 1 μM Smoothend agonist and 10 uM Edu. […]
A dose-responsive effect was further tested for Compound 183 using quantitative imaging analysis on the CellInsight™ CX7 High Content Analysis Platform. By comparing the intensity of TDP-43 staining in the nucleus and cytoplasm of human motor neurons, we determined Compound 183 could maintain nuclear TDP-43 from 370 nM-10 μM in the proteasome challenged motor neurons (see FIG. 2).

insoluble TDP-43 = assay: Cell fractionation and immunoblot of TDP-43 in MG-132 challenged human motor neurons; settings: MG-132 1 μM, vs unstressed
Experimental: Cell culture and differentiation of iPS Cells into motor neurons. Pluripotent stem cells were grown with mTeSR Plus medium on tissue culture dishes coated with Matrigel, and maintained in 5% CO2 incubators at 37° C. Stem cells were passaged as small aggregates of cells after 1 mM EDTA treatment. […] was added to the cultures for 16-24 h after dissociation to prevent cell death. The iP11NA iPS cell line was acquired from ALSTEM. This cell line was generated from pre-made footprint-free human iPS cells with DOX inducible Ngn2 that has been stably integrated into the human AAVS1 “Safe Harbor” site, and provides a convenient means to differentiate human iPS cells into neurons rapidly and efficiently. Motor neuron differentiation was achieved using a modified 5-day strategy. […]
For analysis of TDP-43 cellular distribution, d14 motor neurons were lysed with Thermo Subcellular Protein Fractionation Kit for cultured cells and processed according to the manufacturer's instructions. […] Fluorescent secondary antibodies were used for band detection and the Kaleidoscope precision plus protein ladder for size estimation. iBright FL1500 imaging system and software were used to quantitate protein band signal. […]

TDP-43 splicing function = assay: qRT-PCR of TDP-43 sentinel transcripts (STMN2, ELAVL3, PFKP) in MG-132 challenged human motor neurons; parameters: effect of stressor on splicing changes associated with TDP-43 loss of function (qPCR): dose or concentration left out as unconfirmed; settings: human motor neurons, relative to unstressed
Experimental: as §1
This approach relies on neural induction through small molecule inhibition of SMAD signaling, accelerated neural differentiation through forced Ngn2 expression, and motor neuron patterning through the activation of retinoic acid and Sonic Hedgehog signaling pathways. In brief, pluripotent stem cells were dissociated to single cells using accutase and plated at a density of 80,000 cells per cm^2 on Matrigel-coated culture plates with mTeSR Plus medium supplemented with ROCK inhibitor (10 μM Y-27632, ATCC). When cells reached 50% confluency, medium was changed to differentiation medium BrainPhys medium supplemented with N2-A, SM1, […]. This time point was defined as day 0 (d0) of motor neuron differentiation. Treatment with small molecules was carried out as follows: 2 μg/mL Doxycyline, 10 μM SB431542, 100 nM LDN-193189, […] and 1 μM Smoothend agonist and 10 uM Edu. The full list of materials and their descriptions is included below in Table 5.
Total RNA was isolated from d14 motor neurons for qRT-PCR assays using TaqMan™ Fast Advanced Cells-to-CT™ Kit according to manufacturer's instructions. 7500 neurons per well of 96-well culture were routinely used for processing. qRT-PCR was then performed using multiplex assays from IDT using PrimeTime™ Gene Expression Master Mix (IDT) on a QuantStudio6Pro system. Quantitative levels for all genes assayed were normalized using GAPDH expression. […] Primers and probes used in this study are in Table 5.
To this end, we first examined whether proteasome inhibition, which triggers TDP-43 nuclear depletion, also leads to splicing defects associated with TDP-43 loss-of function. For comparison, we also treated human motor neurons with puromycin, which recruits TDP-43 to stress granules in the cytoplasm. We chose to analyze several transcripts that have relevant connections to ALS biology including STMN26,12, PFKP19, and ELAVL320,21. We used quantitative reverse transcription-polymerase chain reaction (qRT-PCR) to validate that in MG-132-treated motor neurons these transcripts were altered like in ALS patients.
Using this method, we next obtained RNA from independent motor neuron biological replicates after proteasome inhibition and Compound 183 treatment to determined by qRT-PCR the relative abundance of these transcripts. […] A dose-responsive effect was further tested for Compound 183 using qRT-PCR in this model. […] Collectively, the data support the notion that Compound 183 promotes TDP-43 nuclear function under proteotoxic stress.

Row | Structure (SMILES) | effect of stressor on nuclear TDP-43 staining (immunofluorescence) [1] | effect of stressor on TDP-43 distribution between fractions (immunoblot) (insoluble TDP-43) | effect of stressor on cryptic splicing of STMN2, ELAVL3, PFKP (qPCR) (TDP-43 splicing function; MG-132 1 μM) | effect of stressor on normal transcript levels (qPCR) (TDP-43 splicing function; MG-132 1 μM) | effect of stressor on splicing changes associated with TDP-43 loss of function (qPCR) (TDP-43 splicing function)
1 | CC(C)C[C@@H](C=O)NC(=O)[C@H](CC(C)C)NC(=O)[C@H](CC(C)C)NC(=O)OCc1ccccc1 [MG-132, reference compound] (Cbz-Leu-Leu-Leu-aldehyde) | induced a loss of nuclear TDP-43 staining | significant change in TDP-43 distribution from the soluble, nuclear compartment to the insoluble fraction | strong induction of cryptic splicing | decreased levels for normal STMN2 as well as the cryptic exon-disrupted splice junctions in PFKP and ELAVL3 | –
2 | COc1ccc(C[C@H](N)C(=O)N[C@H]2[C@@H](O)[C@H](n3cnc4c(N(C)C)ncnc43)O[C@@H]2CO)cc1 [puromycin, reference compound] | – | – | – | – | failed to induce transcription changes consistent with TDP-43 loss of function
